Where a SMILES comes first, the peptide text is derived from it. [ ]: non-standard residue; d: D form. Phe(3,4-(OMe)2) = COc1ccc(C[C@H](N)C(=O)O)cc1OC; Phe(4-CONH2) = NC(=O)c1ccc(C[C@H](N)C(=O)O)cc1; 2Nal = N[C@@H](Cc1ccc2ccccc2c1)C(=O)O; AEF = NCCOc1ccc(C[C@H](N)C(=O)O)cc1; Pen = CC(C)(S)[C@H](N)C(=O)O; αMeV = CC(C)[C@](C)(N)C(=O)O; Aib = CC(C)(N)C(=O)O
Target: T1, Interleukin-23 receptor (Homo sapiens, UniProt Q5VWK5)
T1 sequence (Q5VWK5 whole entry): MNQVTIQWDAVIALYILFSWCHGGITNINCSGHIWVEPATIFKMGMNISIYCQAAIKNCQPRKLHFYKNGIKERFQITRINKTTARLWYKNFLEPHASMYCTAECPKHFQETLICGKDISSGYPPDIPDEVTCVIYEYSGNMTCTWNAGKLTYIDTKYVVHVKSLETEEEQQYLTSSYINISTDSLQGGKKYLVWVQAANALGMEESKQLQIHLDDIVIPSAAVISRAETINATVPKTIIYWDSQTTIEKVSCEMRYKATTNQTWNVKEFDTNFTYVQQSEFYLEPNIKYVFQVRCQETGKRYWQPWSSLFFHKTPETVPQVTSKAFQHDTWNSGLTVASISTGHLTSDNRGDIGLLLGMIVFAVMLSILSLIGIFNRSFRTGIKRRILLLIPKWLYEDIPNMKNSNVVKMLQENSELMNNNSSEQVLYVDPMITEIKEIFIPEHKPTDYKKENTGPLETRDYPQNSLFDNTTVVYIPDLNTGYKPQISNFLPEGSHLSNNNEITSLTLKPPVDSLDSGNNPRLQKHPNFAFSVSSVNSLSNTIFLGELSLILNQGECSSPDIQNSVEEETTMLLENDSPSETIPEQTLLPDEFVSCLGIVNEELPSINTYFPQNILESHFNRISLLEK
Assay: Inhibition of interleukin-23 receptor in human DB cells assessed as reduction in IL-23-stimulated STAT3 phosphorylation incubated for 30 mins by HTRF assay
Assay type: cell-based

| IC50 [µM] | SMILES |
| --- | --- |
| < 0.01 | COc1ccc(C[C@H](NC(=O)[C@@H](NC(=O)[C@H](CCC(N)=O)NC(=O)[C@H](Cc2c[nH]c3ccccc23)NC(=O)[C@@H](NC(=O)[C@H](CCC(N)=O)NC(=O)[C@@H](NC(C)=O)C(C)(C)S)[C@@H](C)O)C(C)(C)S)C(=O)N[C@@H](Cc2ccc3ccccc3c2)C(=O)N[C@](C)(C(=O)N[C@@H](CCCCNC(C)=O)C(=O)N[C@@H](CC(N)=O)C(=O)N[C@@H](CC(N)=O)C(=O)N[C@@H](N)CCCCN)C(C)C)cc1 |
| < 0.01 | COc1ccc(C[C@H](NC(=O)[C@@H](NC(=O)[C@H](CCC(N)=O)NC(=O)[C@H](Cc2c[nH]c3ccccc23)NC(=O)[C@@H](NC(=O)[C@H](CC(N)=O)NC(=O)[C@@H](NC(C)=O)C(C)(C)S)[C@@H](C)O)C(C)(C)S)C(=O)N[C@@H](Cc2ccc3ccccc3c2)C(=O)NC(C)(C)C(=O)N[C@@H](CCCCNC(C)=O)C(=O)N[C@@H](CC(N)=O)C(=O)N[C@@H](C)C(N)=O)cc1 |
| < 0.01 | COc1ccc(C[C@H](NC(=O)[C@@H](NC(=O)[C@H](CCC(N)=O)NC(=O)[C@H](Cc2c[nH]c3ccccc23)NC(=O)[C@@H](NC(=O)[C@H](CCC(N)=O)NC(=O)[C@@H](NC(C)=O)C(C)(C)S)[C@@H](C)O)C(C)(C)S)C(=O)N[C@@H](Cc2ccc3ccccc3c2)C(=O)NC(C)(C)C(=O)N[C@@H](CCCCNC(C)=O)C(=O)N[C@@H](CC(N)=O)C(=O)N[C@@H](CCC(N)=O)C(N)=O)cc1 |
| < 0.01 | CC(=O)NCCCC[C@H](NC(=O)C(C)(C)NC(=O)[C@H](Cc1ccc2ccccc2c1)NC(=O)[C@H](Cc1ccc(OCCN)cc1)NC(=O)[C@@H](NC(=O)[C@H](CCC(N)=O)NC(=O)[C@H](Cc1c[nH]c2ccccc12)NC(=O)[C@@H](NC(=O)[C@@H](NC(=O)[C@@H](NC(C)=O)C(C)(C)S)[C@@H](C)O)[C@@H](C)O)C(C)(C)S)C(=O)N[C@@H](CC(N)=O)C(=O)N[C@@H](CCC(N)=O)C(N)=O |
| < 0.01 | CC(=O)NCCOc1ccc(C[C@H](NC(=O)[C@@H](NC(=O)[C@H](CCC(N)=O)NC(=O)[C@H](Cc2c[nH]c3ccccc23)NC(=O)[C@@H](NC(=O)[C@H](CCC(N)=O)NC(=O)[C@@H](NC(C)=O)C(C)(C)S)[C@@H](C)O)C(C)(C)S)C(=O)N[C@@H](Cc2ccc3ccccc3c2)C(=O)N[C@](C)(C(=O)N[C@@H](CCCCN)C(=O)N[C@@H](CC(N)=O)C(=O)N[C@@H](CC(N)=O)C(N)=O)C(C)C)cc1 |
| < 0.01 | CC(=O)NCCCC[C@H](NC(=O)C(C)(C)NC(=O)[C@H](Cc1ccc2ccccc2c1)NC(=O)[C@H](Cc1ccc(OCCN)cc1)NC(=O)[C@@H](NC(=O)[C@H](CCC(N)=O)NC(=O)[C@H](Cc1c[nH]c2ccccc12)NC(=O)[C@@H](NC(=O)[C@H](CCC(N)=O)NC(=O)[C@@H](NC(=O)[C@H](CCC(=O)O)NC(C)=O)C(C)(C)S)[C@@H](C)O)C(C)(C)S)C(=O)N[C@@H](CC(N)=O)C(=O)N[C@@H](CC(N)=O)C(N)=O (Ac-E[Pen]QTWQ[Pen][AEF][2Nal][Aib]K(Ac)NN-NH2) |
| < 0.01 | CC(=O)NCCCC[C@H](NC(=O)[C@H](CCC(C)C)NC(=O)[C@H](Cc1ccc2ccccc2c1)NC(=O)[C@H](Cc1ccc(OCCN)cc1)NC(=O)[C@@H](NC(=O)[C@H](CCC(N)=O)NC(=O)[C@H](Cc1c[nH]c2ccccc12)NC(=O)[C@@H](NC(=O)[C@H](CCC(N)=O)NC(=O)[C@@H](NC(C)=O)C(C)(C)S)[C@@H](C)O)C(C)(C)S)C(=O)N[C@@H](CC(N)=O)C(=O)NCCC(N)=O |
| < 0.01 | CC(=O)NCCCC[C@H](NC(=O)C(C)(C)NC(=O)[C@H](Cc1ccc2ccccc2c1)NC(=O)[C@H](Cc1ccc(OCCN)cc1)NC(=O)[C@@H](NC(=O)[C@H](CCC(N)=O)NC(=O)[C@H](Cc1c[nH]c2ccccc12)NC(=O)[C@@H](NC(=O)[C@H](CCC(N)=O)NC(=O)[C@@H](NC(=O)[C@@H](NC(C)=O)[C@@H](C)O)C(C)(C)S)[C@@H](C)O)C(C)(C)S)C(=O)N[C@@H](CC(N)=O)C(=O)N[C@@H](CC(N)=O)C(N)=O (Ac-T[Pen]QTWQ[Pen][AEF][2Nal][Aib]K(Ac)NN-NH2) |
| 0.01 to 0.025 | CC(=O)N[C@H]1CCSC[C@@H](C(=O)N[C@@H](Cc2ccc(OCCN)cc2)C(=O)N[C@@H](Cc2c[nH]c3ccc(O)cc23)C(=O)NC(C)(C)C(=O)N[C@@H](CCC(N)=O)C(=O)N[C@@H](CC(N)=O)C(=O)NCC(N)=O)NC(=O)[C@H](CCC(N)=O)NC(=O)[C@H](Cc2c[nH]c3ccccc23)NC(=O)[C@H]([C@@H](C)O)NC(=O)[C@H](CCC(N)=O)NC1=O |
| < 0.01 | COc1ccc(C[C@H](NC(=O)[C@@H](NC(=O)[C@H](CCC(N)=O)NC(=O)[C@H](Cc2c[nH]c3ccccc23)NC(=O)[C@@H](NC(=O)[C@H](CCC(N)=O)NC(=O)[C@@H](NC(C)=O)C(C)(C)S)[C@@H](C)O)C(C)(C)S)C(=O)N[C@@H](Cc2ccc3ccccc3c2)C(=O)NC(C)(C)C(=O)N[C@@H](CCCCNC(C)=O)C(=O)N[C@@H](CC(N)=O)C(=O)N[C@@H](C)C(N)=O)cc1 |
| < 0.01 | COc1ccc(C[C@H](NC(=O)[C@@H](NC(=O)[C@H](CCC(N)=O)NC(=O)[C@H](Cc2c[nH]c3ccccc23)NC(=O)[C@@H](NC(=O)[C@H](CCC(N)=O)NC(=O)[C@@H](NC(C)=O)C(C)(C)S)[C@@H](C)O)C(C)(C)S)C(=O)N[C@@H](Cc2ccc3ccccc3c2)C(=O)N[C@@H](CCC(C)C)C(=O)N[C@@H](CCCCNC(C)=O)C(=O)N[C@@H](CC(N)=O)C(=O)NCCC(N)=O)cc1 |
| 0.1 to 1 | CC(=O)N[C@H]1CCSC[C@@H](C(=O)N[C@H]2Cc3ccc(cc3)OCCNC(=O)C[C@@H](C(=O)NCC(N)=O)NC(=O)[C@H](CCC(N)=O)NC(=O)[C@](C)(CC(C)C)NC(=O)[C@H](Cc3ccc4ccccc4c3)NC2=O)NC(=O)[C@H](CCC(N)=O)NC(=O)[C@H](Cc2c[nH]c3ccccc23)NC(=O)[C@H]([C@@H](C)O)NC(=O)[C@H](CCC(N)=O)NC1=O |
| 0.025 to 0.1 | CC(=O)NCCCC[C@H](NC(=O)[C@H](CCCCN)NC(=O)[C@H](Cc1ccc2ccccc2c1)NC(=O)[C@H](Cc1ccc(OCCNC(C)=O)cc1)NC(=O)[C@@H](NC(=O)[C@H](CCC(N)=O)NC(=O)[C@H](Cc1c[nH]c2ccccc12)NC(=O)[C@@H](NC(=O)[C@H](CCC(N)=O)NC(=O)[C@@H](NC(C)=O)C(C)(C)S)[C@@H](C)O)C(C)(C)S)C(=O)N[C@@H](CC(N)=O)C(=O)N[C@@H](CC(N)=O)C(N)=O |
| < 0.01 | CC(=O)NCCCC[C@H](NC(=O)C(C)(C)NC(=O)[C@H](Cc1ccc2ccccc2c1)NC(=O)[C@H](Cc1ccc(OCCN)cc1)NC(=O)[C@@H](NC(=O)[C@H](CCC(N)=O)NC(=O)[C@H](Cc1c[nH]c2ccccc12)NC(=O)[C@@H](NC(=O)[C@H](CCC(N)=O)NC(=O)[C@@H](NC(=O)[C@@H](Cc1ccccc1)NC(C)=O)C(C)(C)S)[C@@H](C)O)C(C)(C)S)C(=O)N[C@@H](CC(N)=O)C(=O)N[C@@H](CC(N)=O)C(N)=O |
| 1 to 10 | CC(=O)NCCCC[C@H](NC(=O)[C@@](C)(NC(=O)[C@H](Cc1ccc2ccccc2c1)NC(=O)[C@H](Cc1ccc(C(N)=O)cc1)NC(=O)[C@@H](NC(=O)[C@H](CCC(N)=O)NC(=O)[C@H](Cc1c[nH]c2ccccc12)NC(=O)[C@@H](NC(=O)[C@H](CCC(N)=O)NC(=O)[C@@H](NC(=O)[C@@H](CCCCN)NC(C)=O)C(C)(C)S)[C@@H](C)O)C(C)(C)S)C(C)C)C(=O)N[C@@H](CC(N)=O)C(=O)N[C@@H](CC(N)=O)C(N)=O |
| < 0.01 | CC(=O)NCCCC[C@H](NC(=O)C(C)(C)NC(=O)[C@H](Cc1ccc2ccccc2c1)NC(=O)[C@H](Cc1ccc(OCCN)cc1)NC(=O)[C@@H](NC(=O)[C@H](CCC(N)=O)NC(=O)[C@H](Cc1c[nH]c2ccccc12)NC(=O)[C@@H](NC(=O)[C@H](CCC(N)=O)NC(=O)[C@@H](NC(=O)[C@H](CCCNC(=N)N)NC(C)=O)C(C)(C)S)[C@@H](C)O)C(C)(C)S)C(=O)N[C@@H](CC(N)=O)C(=O)N[C@@H](CC(N)=O)C(N)=O |
| 0.01 to 0.025 | COc1ccc(C[C@H](NC(=O)[C@H](Cc2ccc(C(N)=O)cc2)NC(=O)[C@@H](NC(=O)[C@H](CCC(N)=O)NC(=O)[C@H](Cc2c[nH]c3ccccc23)NC(=O)[C@@H](NC(=O)[C@H](CCC(N)=O)NC(=O)[C@@H](NC(C)=O)C(C)(C)S)[C@@H](C)O)C(C)(C)S)C(=O)N[C@](C)(C(=O)N[C@@H](CCCCNC(C)=O)C(=O)N[C@@H](CC(N)=O)C(=O)N[C@@H](CC(N)=O)C(N)=O)C(C)C)cc1OC (Ac-[Pen]QTWQ[Pen][Phe(4-CONH2)][Phe(3,4-(OMe)2)][αMeV]K(Ac)NN-NH2) |
| < 0.01 | CC(=O)NCCCC[C@H](NC(=O)C(C)(C)NC(=O)[C@H](Cc1ccc2ccccc2c1)NC(=O)[C@H](Cc1ccc(OCCN)cc1)NC(=O)[C@@H](NC(=O)[C@H](CCC(N)=O)NC(=O)[C@H](Cc1c[nH]c2ccccc12)NC(=O)[C@@H](NC(=O)[C@H](CCC(N)=O)NC(=O)[C@@H](NC(C)=O)C(C)(C)S)[C@@H](C)O)C(C)(C)S)C(=O)N[C@@H](CC(N)=O)C(=O)N[C@@H](C)C(N)=O |
| 0.076 | CCCCCCCC[C@H](NC(=O)[C@H](Cc1c[nH]c2ccccc12)NC(=O)[C@H](Cc1ccc(O)cc1)NC(=O)[C@H](CS)NC(=O)[C@H](CCC(N)=O)NC(=O)[C@H](Cc1c[nH]c2ccccc12)NC(=O)[C@@H](NC(=O)[C@H](CCC(N)=O)NC(=O)[C@H](CS)NC(C)=O)[C@@H](C)O)C(=O)N[C@@H](CCC(=O)O)C(=O)N[C@@H](CC(N)=O)C(=O)NCC(N)=O |
